Experimental data taken from paper PMC11292843 (ACS Omega, 2024).

Experiments:
hPTP1B1–400 [1] = target: T1, hPTP1B1–400 (Homo sapiens, UniProt P18031); experiment: PTP1B inhibition assay (pNPP, spectrocolorimetric), long form; details: IC50 ± SD hPTP1B1–400, hPTP1B 66 nM, pNPP 0.5 mM, 37 °C, 15 min
T1 sequence (P18031 1-400): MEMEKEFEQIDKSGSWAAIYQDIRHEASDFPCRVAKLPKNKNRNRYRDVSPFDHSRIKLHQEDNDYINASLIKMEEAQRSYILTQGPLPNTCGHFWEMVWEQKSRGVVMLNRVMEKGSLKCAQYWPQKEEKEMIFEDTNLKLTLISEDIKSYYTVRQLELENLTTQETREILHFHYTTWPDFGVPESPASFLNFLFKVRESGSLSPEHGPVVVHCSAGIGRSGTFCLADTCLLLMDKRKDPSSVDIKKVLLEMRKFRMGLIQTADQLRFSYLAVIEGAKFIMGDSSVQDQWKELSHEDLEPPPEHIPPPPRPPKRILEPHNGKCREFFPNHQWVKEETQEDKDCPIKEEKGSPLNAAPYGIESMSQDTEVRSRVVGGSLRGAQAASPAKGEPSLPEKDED

hPTP1B1–285 = target: T2, hPTP1B1–285 (Homo sapiens, UniProt P18031); experiment: PTP1B inhibition assay (pNPP, spectrocolorimetric), short form
T2 sequence (P18031 1-285): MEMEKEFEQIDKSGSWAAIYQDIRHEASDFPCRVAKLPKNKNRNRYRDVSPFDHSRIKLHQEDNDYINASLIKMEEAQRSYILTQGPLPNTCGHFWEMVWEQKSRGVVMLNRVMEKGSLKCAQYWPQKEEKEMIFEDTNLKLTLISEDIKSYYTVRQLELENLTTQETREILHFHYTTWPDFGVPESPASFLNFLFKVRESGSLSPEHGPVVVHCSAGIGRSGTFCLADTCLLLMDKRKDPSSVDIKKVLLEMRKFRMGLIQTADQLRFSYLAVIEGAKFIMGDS

hPTP1B1–400 [2] = target: T1, hPTP1B1–400; experiment: Enzyme kinetics (Lineweaver–Burk, varying pNPP); details: for inhibition mechanism: hPTP1B1–400, best fit of inhibition models; for Km / Vmax: hPTP1B1–400, pNPP 0.1–0.5 mM

Row | SMILES | IC50 (hPTP1B1–400 [1]) | IC50 (hPTP1B1–285) | Ki (hPTP1B1–400 [2]) | inhibition mechanism (hPTP1B1–400 [2]) | Km (hPTP1B1–400 [2]) | Vmax (hPTP1B1–400 [2])
1 | Cc1ccc(CNC[C@]2(O)CC[C@]3(C)C4CC[C@@]5(C)C(CCC5[C@H](C)CCC(=O)O)C4CC[C@@H]3C2)cc1 (stereo partly drawn) [compound 6f, 1-((3S,5R,10S,13R)-17-((R)-4-carboxybutan-2-yl)-3-hydroxy-10,13-dimethylhexadecahydro-1H-cyclopenta[a]phenanthren-3-yl)-N-(4-methylbenzyl)methanaminium Chloride] | 34.3 ± 0.5 µM | 46 ± 1.7 µM |  |  |  | 
2 | C[C@H](CCC(=O)O)C1CCC2C3CC[C@@H]4C[C@](O)(CNCc5ccc(F)cc5)CC[C@]4(C)C3CC[C@@]21C (stereo partly drawn) [compound 6h, 1-((3S,5R,10S,13R)-17-((R)-4-carboxybutan-2-yl)-3-hydroxy-10,13-dimethylhexadecahydro-1H-cyclopenta[a]phenanthren-3-yl)-N-(4-fluorobenzyl)methanaminium Chloride] | > 100 µM |  |  |  |  | 
3 | C[C@H](CCC(=O)O)C1CCC2C3CC[C@@H]4C[C@](O)(CNCc5ccccc5)CC[C@]4(C)C3CC[C@@]21C (stereo partly drawn) [compound 6a, N-Benzyl-1-((3S,5R,10S,13R)-17-((R)-4-carboxybutan-2-yl)-3-hydroxy-10,13-dimethylhexadecahydro-1H-cyclopenta[a]phenanthren-3-yl)methanaminium Chloride] | 33.1 ± 2.7 µM |  |  |  |  | 
4 | C[C@H](CCC(=O)O)C1CCC2C3CC[C@@H]4C[C@](O)(CNCc5cccc(Cl)c5)CC[C@]4(C)C3CC[C@@]21C (stereo partly drawn) [compound 6i, 1-((3S,5R,10S,13R)-17-((R)-4-carboxybutan-2-yl)-3-hydroxy-10,13-dimethylhexadecahydro-1H-cyclopenta[a]phenanthren-3-yl)-N-(3-chlorobenzyl)methanaminium Chloride] | > 100 µM |  |  |  |  | 
5 | C[C@H](CCC(=O)O)C1CCC2C3CC[C@@H]4C[C@](O)(CNCc5ccc(C(=O)O)cc5)CC[C@]4(C)C3CC[C@@]21C.Cl (stereo partly drawn) [compound 6l, N-(4-carboxybenzyl)-1-((3S,5R,10S,13R)-17-((R)-4-carboxybutan-2-yl)-3-hydroxy-10,13-dimethylhexadecahydro-1H-cyclopenta[a]phenanthren-3-yl)methanaminium Chloride] | 12.6 ± 0.7 µM |  | 10.7 ± 1.6 µM | Uncompetitive | 950 ± 150 µM | 1.41 ± 0.17 mM/min
6 | COc1ccc(CNC[C@]2(O)CC[C@]3(C)C4CC[C@@]5(C)C(CCC5[C@H](C)CCC(=O)O)C4CC[C@@H]3C2)cc1.Cl (stereo partly drawn) [compound 6d, 1-((3S,5R,10S,13R)-17-((R)-4-carboxybutan-2-yl)-3-hydroxy-10,13-dimethylhexadecahydro-1H-cyclopenta[a]phenanthren-3-yl)-N-(4-methoxybenzyl)methanaminium Chloride] | 26.6 ± 0.9 µM |  | 19.7 ± 2.6 µM | Uncompetitive | 780 ± 90 µM | 1.10 ± 0.09 mM/min
7 | C[C@H](CCC(=O)O)C1CCC2C3CC[C@@H]4C[C@](O)(CNCc5ccc(O)cc5)CC[C@]4(C)C3CC[C@@]21C (stereo partly drawn) [compound 6b, 1-((3S,5R,10S,13R)-17-((R)-4-carboxybutan-2-yl)-3-hydroxy-10,13-dimethylhexadecahydro-1H-cyclopenta[a]phenanthren-3-yl)-N-(4-hydroxybenzyl)methanaminium Chloride] | 26.9 ± 3.5 µM |  |  |  |  | 
8 | C[C@H](CCC(=O)O)C1CCC2C3CC[C@@H]4C[C@](O)(CNCc5cccc(C(=O)O)c5)CC[C@]4(C)C3CC[C@@]21C.Cl (stereo partly drawn) [compound 6k, N-(3-carboxybenzyl)-1-((3S,5R,10S,13R)-17-((R)-4-carboxybutan-2-yl)-3-hydroxy-10,13-dimethylhexadecahydro-1H-cyclopenta[a]phenanthren-3-Yl)methanaminium Chloride] | 32.3 ± 1.2 µM |  | 11 ± 1 µM | Uncompetitive | 480 ± 60 µM | 0.80 ± 0.06 mM/min
9 | C[C@H](CCC(=O)O)C1CCC2C3CC[C@@H]4C[C@](O)(CNCc5cccc(F)c5)CC[C@]4(C)C3CC[C@@]21C (stereo partly drawn) [compound 6g, 1-((3S,5R,10S,13R)-17-((R)-4-carboxybutan-2-yl)-3-hydroxy-10,13-dimethylhexadecahydro-1H-cyclopenta[a]phenanthren-3-yl)-N-(3-fluorobenzyl)methanaminium Chloride] | > 100 µM |  |  |  |  | 
10 | C[C@H](CCC(=O)O)C1CCC2C3CC[C@@H]4C[C@](O)(CNCc5ccc(Cl)cc5)CC[C@]4(C)C3CC[C@@]21C (stereo partly drawn) [compound 6j, 1-((3S,5R,10S,13R)-17-((R)-4-carboxybutan-2-yl)-3-hydroxy-10,13-dimethylhexadecahydro-1H-cyclopenta[a]phenanthren-3-yl)-N-(4-chlorobenzyl)methanaminium Chloride] | > 100 µM |  |  |  |  | 
11 | COc1cccc(CNC[C@]2(O)CC[C@]3(C)C4CC[C@@]5(C)C(CCC5[C@H](C)CCC(=O)O)C4CC[C@@H]3C2)c1.Cl (stereo partly drawn) [compound 6c, 1-((3S,5R,10S,13R)-17-((R)-4-carboxybutan-2-yl)-3-hydroxy-10,13-dimethylhexadecahydro-1H-cyclopenta[a]phenanthren-3-yl)-N-(3-methoxybenzyl)methanaminium Chloride] | 10.5 ± 0.2 µM |  | 4 ± 0.2 µM | Uncompetitive | 380 ± 20 µM | 0.64 ± 0.02 mM/min
12 | Cc1cccc(CNC[C@]2(O)CC[C@]3(C)C4CC[C@@]5(C)C(CCC5[C@H](C)CCC(=O)O)C4CC[C@@H]3C2)c1 (stereo partly drawn) [compound 6e, 1-((3S,5R,10S,13R)-17-((R)-4-carboxybutan-2-yl)-3-hydroxy-10,13-dimethylhexadecahydro-1H-cyclopenta[a]phenanthren-3-yl)-N-(3-methylbenzyl)methanaminium Chloride] | 16.3 ± 0.5 µM | 53.8 ± 2.7 µM |  |  |  | 
